{"source": "patent US20080311076A1", "about": "“Morpholinylanilinoquinazoline Derivatives For Use As Antiviral Agents” (ARROW THERAPEUTICS LIMITED, priority 2004, published 2008)", "system": "HCV replicon cells Huh 9B", "assay": "HCV replicon assay (luciferase) in Huh 9B replicon cells", "assay_type": "cell-based", "conditions": "Hepatitis C virus; concentration reducing replicon level (luciferase activity) by 50% vs untreated cell control; 72 h incubation", "protocol": "HCV replicon cells Huh 9B (ReBlikon), containing the firefly luciferase—ubiquitin—neomycin phosphotransferase fusion protein and EMCV-IRES driven HCV polyprotein with cell culture adaptive mutations.\nCells were cultured at 37° C. in a 5% CO2 environment and split twice a week on seeding at 2×10E6 cells/flask on day 1 and 1×10E6 3 days later. Some 0.25 mg/ml G418 was added to the culture medium (125 ul per 25 ml) but not the assay medium.\nThe culture medium consisted of DMEM with […] glucose and glutamax (Gibco 61965-026) supplemented with 1× non-essential amino acids, penicillin (100 IU/ml)/streptomycin (100 μg/ml), FCS (10%, 50 ml) and 1 mg/ml G418 (Invitrogen cat no 10131-027) & 10% foetal calf serum.\nA flask of cells was trypsinised and a cell count carried out. Cells were diluted to 100,000 cells/ml and 100 μl of this used to seed one opaque white 96-well plate (for the replicon assay) and one flat-bottomed clear plate (for the tox assay) for every seven compounds to be tested for IC50. Wells G12 and H12 were left empty in the clear plate as the blank. Plates were then incubated at 37° C. in a 5% CO2 environment for 24 h.\nOn the following day compound dilutions are made up in medium at twice their desired final concentration in a clear round bottomed plate. All dilutions have a final DMSO concentration of 1%.\nOnce the dilution plate had been made up, controls and compounds were transferred to the assay plate (containing the cells) at 100 μl/well in duplicate plates.\nException: in the white (replicon) plate, no compound was added to wells A1 and A2 and 100 μl of 1% DMSO was added to these instead. In the clear (Tox) plate, wells E12 & F12 only contained the DMSO control. Plates were then incubated at 37° C. with 5% CO2 for 72 h.\nAt the end of the incubation time, the cells in the white plate were harvested by washing with 200 μl/well of warm (37° C.) PBS and lysed with 20 μl cell culture lysis buffer (Promega). After 5 min incubation @ RT, luciferin solution was added to the luciferase assay buffer (LARB at 200 μl per 10 ml LARB. The M injector of the microplate luminometer (Lmax, Molecular Devices) was primed with […] injections. Plate were inserted into the luminometer and 100 μl luciferase assay reagent was added by the injector on the luminometer. The signal was measured using a 1 second delay followed by a 4 second measurement programme. The IC50, the concentration of the drug required for reducing the replicon level by 50% in relation to the untreated cell control value, can be calculated from the plot of the percentage reduction of the luciferase activity vs. drug concentration.", "data": [{"molecule": "FC(F)(F)c1cc(N2CCOCC2)ccc1Nc1ncnc2ccc(-c3cccs3)cc12", "note": "[Example 40, (4-Morpholin-4-yl-2-trifluoromethyl-phenyl)-(6-thiophen-2-yl-quinazolin-4-yl)-amine]", "values": [{"measurement": "IC50", "value": "< 1", "unit": "µM"}]}, {"molecule": "CN(C)C(=O)c1ccc2ncnc(Nc3ccc(N4CCOCC4)cc3)c2c1", "note": "[Example 31, 4-(4-Morpholin-4-yl-phenylamino)-quinazoline-6-carboxylic acid dimethylamide]", "values": [{"measurement": "IC50", "value": "< 5", "unit": "µM"}]}, {"molecule": "CNCc1ccc(-c2ccc3ncnc(Nc4ccc(N5CCOCC5)cc4)c3c2)o1", "note": "[Example 14, [6-(5-Methylaminomethyl-furan-2-yl)-quinazolin-4-yl]-(4-morpholin4-yl-phenyl)-amine]", "values": [{"measurement": "IC50", "value": "< 25", "unit": "µM"}]}, {"molecule": "c1ccc(COc2ccc(-c3ccc4ncnc(Nc5ccc(N6CCOCC6)cc5)c4c3)cc2)cc1", "note": "[Example 51, [6-(4-Benzyloxy-phenyl)-quinazolin-4-yl]-(4-morpholin-4-yl-phenyl)-amine]", "values": [{"measurement": "IC50", "value": "< 5", "unit": "µM"}]}, {"molecule": "FC(F)(F)c1cc(N2CCOCC2)ccc1Nc1ncnc2ccc(I)cc12", "note": "[Example 39, (6-Iodo-quinazolin-4-yl)-(4-morpholin-4-yl-2-trifluoromethyl-phenyl)-amine]", "values": [{"measurement": "IC50", "value": "< 1", "unit": "µM"}]}, {"molecule": "Ic1ccc2ncnc(Nc3ccc(N4CCOCC4)cc3)c2c1", "note": "[Example 2, (6-Iodo-quinazolin-4-yl)-(4-morpholin-4-yl-phenyl)-amine]", "values": [{"measurement": "IC50", "value": "< 1", "unit": "µM"}]}, {"molecule": "O=Cc1ccc(-c2ccc3ncnc(Nc4ccc(N5CCOCC5)cc4)c3c2)o1", "note": "[Example 7, 5-[4-(4-Morpholin 4-yl-phenylamino)-quinazolin-6-yl]-furan-2-carbaldehyde]", "values": [{"measurement": "IC50", "value": "< 1", "unit": "µM"}]}, {"molecule": "CCN(c1ccc(N2CCOCC2)cc1)c1ncnc2ccc(-c3cccs3)cc12", "note": "[Example 45, Ethyl-(4-morpholin-4-yl-phenyl)-(6-thiophen-2-yl-quinazolin-4-yl)-amine]", "values": [{"measurement": "IC50", "value": "< 5", "unit": "µM"}]}, {"molecule": "Cc1cc(N2CCOCC2)ccc1Nc1ncnc2ccc(-c3cccs3)cc12", "note": "[Example 43, (2-Methyl-4-morpholin-4-yl-phenyl)-(6-thiophen-2-yl-quinazolin-4-yl)-amine]", "values": [{"measurement": "IC50", "value": "< 1", "unit": "µM"}]}, {"molecule": "COc1cccc(CNC(=O)c2ccc3ncnc(Nc4ccc(N5CCOCC5)cc4)c3c2)c1", "note": "[Example 28, 4-(4-Morpholin-4-yl-phenylamino)-quinazoline-6-carboxylic acid 3-methoxy-benzylamide]", "values": [{"measurement": "IC50", "value": "< 5", "unit": "µM"}]}, {"molecule": "Cc1ccc(CNC(=O)c2ccc3ncnc(Nc4ccc(N5CCOCC5)cc4)c3c2)cc1", "note": "[Example 29, 4-(4-Morpholin-4-yl-phenylamino)-quinazoline-6-carboxylic acid 4-methyl-benzylamide]", "values": [{"measurement": "IC50", "value": "< 5", "unit": "µM"}]}, {"molecule": "CCNC(=O)c1ccc2ncnc(Nc3ccc(N4CCOCC4)cc3)c2c1", "note": "[Example 32, 4-(4-Morpholin-4-yl-phenylamino)-quinazoline-6-carboxylic acid ethylamide]", "values": [{"measurement": "IC50", "value": "< 5", "unit": "µM"}]}, {"molecule": "CS(=O)(=O)CCNCc1ccc(-c2ccc3ncnc(Nc4ccc(N5CCOCC5)cc4)c3c2)o1", "note": "[Example 9, (6-{5-[(2-Methanesulfonyl-ethylamino)-methyl]-furan-2-yl}-quinazolin-4-yl)-(4-morpholin-4-yl-phenyl)-amine]", "values": [{"measurement": "IC50", "value": "< 1", "unit": "µM"}]}, {"molecule": "c1csc(-c2ccc3ncnc(Nc4ccc(N5CCOCC5)cc4)c3c2)c1", "note": "[Example 15, (4-Morpholin-4-yl-phenyl)-(6-thiophen-2-yl-quinazolin-4-yl)-amine]", "values": [{"measurement": "IC50", "value": "< 1", "unit": "µM"}]}, {"molecule": "O=C(Nc1ccc(-c2ccc3ncnc(Nc4ccc(N5CCOCC5)cc4)c3c2)cc1)OCc1ccccc1", "note": "[Example 34, {4-[4-(4-Morpholin-4-yl-phenylamino)-quinazolin-6-yl]-phenyl}-carbamic acid benzyl ester]", "values": [{"measurement": "IC50", "value": "< 1", "unit": "µM"}]}, {"molecule": "CC(C)CCN(c1ccc(N2CCOCC2)cc1)c1ncnc2ccc(I)cc12", "note": "[Example 47, (6-Iodo-quinazolin-4-yl)-(3-methyl-butyl)-(4-morpholin-4-yl-phenyl)-amine]", "values": [{"measurement": "IC50", "value": "< 5", "unit": "µM"}]}, {"molecule": "c1ccc(COc2ccccc2-c2ccc3ncnc(Nc4ccc(N5CCOCC5)cc4)c3c2)cc1", "note": "[Example 50, [6-(2-Benzyloxy-phenyl)-quinazolin-4-yl]-(4-morpholin-4-yl-phenyl)-amine]", "values": [{"measurement": "IC50", "value": "< 5", "unit": "µM"}]}, {"molecule": "CS(=O)(=O)Nc1cccc(-c2ccc3ncnc(Nc4ccc(N5CCOCC5)cc4)c3c2)c1", "note": "[Example 38, N-{3-[4-(4-Morpholin-4-yl-phenylamino)-quinazolin-6-yl]-phenyl}-methanesulfonamide]", "values": [{"measurement": "IC50", "value": "< 5", "unit": "µM"}]}, {"molecule": "CN(c1ccc(N2CCOCC2)cc1)c1ncnc2ccc(I)cc12", "note": "[Example 46, (6-Iodo-quinazolin-4-yl)-methyl-(4-morpholin-4-yl-phenyl)amine]", "values": [{"measurement": "IC50", "value": "< 1", "unit": "µM"}]}, {"molecule": "COc1cc(Nc2ncnc3ccc(I)cc23)ccc1N1CCOCC1", "note": "[Example 41, (6-Iodo-quinazolin-4-yl)-(3-methoxy-4-morpholin-4-yl-phenyl)-amine]", "values": [{"measurement": "IC50", "value": "< 5", "unit": "µM"}]}, {"molecule": "COc1ccc(CNC(=O)c2ccc3ncnc(Nc4ccc(N5CCOCC5)cc4)c3c2)cc1", "note": "[Example 26, 4-(4-Morpholin-4-yl-phenylamino)-quinazoline-6-carboxylic acid 4-methoxy-benzylamide]", "values": [{"measurement": "IC50", "value": "< 5", "unit": "µM"}]}, {"molecule": "COc1ncc(-c2ccc3ncnc(Nc4ccc(N5CCOCC5)cc4)c3c2)cn1", "note": "[Example 19, [6-(2-Methoxy-pyrimidin-5-yl)-quinazolin-4-yl]-(4-morpholin-4-yl-phenyl)-amine]", "values": [{"measurement": "IC50", "value": "< 1", "unit": "µM"}]}, {"molecule": "CN(C)Cc1ccc(-c2ccc3ncnc(Nc4ccc(N5CCOCC5)cc4)c3c2)o1", "note": "[Example 13, [6-(5-Dimethylaminomethyl-furan-2-yl)-quinazolin-4-yl]-(4-morpholin-4-yl-phenyl)-amine]", "values": [{"measurement": "IC50", "value": "< 5", "unit": "µM"}]}, {"molecule": "c1csc(-c2ccc3ncnc(Nc4ccc(N5CCOCC5)cc4)c3c2)n1", "note": "[Example 18, (4-Morpholin-4-yl-phenyl)-(6-thiazol-2-yl-quinazolin-4-yl)-amine]", "values": [{"measurement": "IC50", "value": "< 1", "unit": "µM"}]}, {"molecule": "Brc1ccc2ncnc(Nc3ccc(N4CCOCC4)cc3)c2c1", "note": "[Example 1, (6-Bromo-quinazolin-4-yl)-(4-morpholin-4-yl-phenyl)-amine]", "values": [{"measurement": "IC50", "value": "< 5", "unit": "µM"}]}, {"molecule": "Cc1cc(Nc2ncnc3ccc(-c4cccs4)cc23)ccc1N1CCOCC1", "note": "[Example 44, (3-Methyl-4-morpholin-4-yl-phenyl)-(6-thiophen-2-yl-quinazolin-4-yl)-amine]", "values": [{"measurement": "IC50", "value": "< 1", "unit": "µM"}]}, {"molecule": "Cc1ccccc1-c1ccc2ncnc(Nc3ccc(N4CCOCC4)cc3)c2c1", "note": "[Example 17, (4-Morpholin-4-yl-phenyl)-(6-o-tolyl-quinazolin-4-yl)-amine]", "values": [{"measurement": "IC50", "value": "< 5", "unit": "µM"}]}, {"molecule": "CS(=O)(=O)c1ccc(-c2ccc3ncnc(Nc4ccc(N5CCOCC5)cc4)c3c2)cc1", "note": "[Example 22, [6-(4-Methanesulfonyl-phenyl)-quinazolin-4-yl]-(4-morpholin-4-yl-phenyl)-amine]", "values": [{"measurement": "IC50", "value": "< 1", "unit": "µM"}]}, {"molecule": "CC(C)(C)OC(=O)Nc1ccc(-c2ccc3ncnc(Nc4ccc(N5CCOCC5)cc4)c3c2)cc1", "note": "[Example 36, {4-[4-(4-Morpholin-4-yl-phenylamino)-quinazolin-6-yl]-phenyl}-carbamic acid tert-butyl ester]", "values": [{"measurement": "IC50", "value": "< 1", "unit": "µM"}]}, {"molecule": "O=C(O)c1ccc(-c2ccc3ncnc(Nc4ccc(N5CCOCC5)cc4)c3c2)s1", "note": "[Example 21, 5-[4-(4-Morpholin-4-yl-phenylamino)-quinazolin-6-yl]-thiophene-2-carboxylic acid]", "values": [{"measurement": "IC50", "value": "< 25", "unit": "µM"}]}, {"molecule": "OCc1ccc(-c2ccc3ncnc(Nc4ccc(N5CCOCC5)cc4)c3c2)o1", "note": "[Example 8, {5-[4-(4-morpholin-4-yl-phenylamino)-quinazolin-6-yl]-furan-2-yl}-methanol]", "values": [{"measurement": "IC50", "value": "< 1", "unit": "µM"}]}, {"molecule": "Cc1csc(-c2ccc3ncnc(Nc4ccc(N5CCOCC5)cc4)c3c2)c1", "note": "[Example 20, [6-(4-Methyl-thiophen-2-yl)-quinazolin-4-yl]-(4-morpholin-4-yl-phenyl)-amine]", "values": [{"measurement": "IC50", "value": "< 5", "unit": "µM"}]}, {"molecule": "COc1cc(Nc2ncnc3ccc(-c4cccs4)cc23)ccc1N1CCOCC1", "note": "[Example 42, (3-Methoxy-4-morpholin-4-yl-phenyl)-(6-thiophen-2-yl-quinazolin-4-yl)-amine]", "values": [{"measurement": "IC50", "value": "< 1", "unit": "µM"}]}, {"molecule": "CNC(=O)c1ccc2ncnc(Nc3ccc(N4CCOCC4)cc3)c2c1", "note": "[Example 30, 4-(4-Morpholin-4-yl-phenylamino)-quinazoline-6-carboxylic acid methylamide]", "values": [{"measurement": "IC50", "value": "< 5", "unit": "µM"}]}, {"molecule": "CC(C)CCN(c1ccc(N2CCOCC2)cc1)c1ncnc2ccc(-c3cccs3)cc12", "note": "[Example 49, (3-Methyl-butyl)-(4-morpholin-4-yl-phenyl)-(6-thiophen-2-yl-quinazolin-4-yl)-amine]", "values": [{"measurement": "IC50", "value": "< 5", "unit": "µM"}]}, {"molecule": "c1coc(-c2ccc3ncnc(Nc4ccc(N5CCOCC5)cc4)c3c2)c1", "note": "[Example 5, (6-Furan-2-yl-quinazolin-4-yl)-(4-morpholin-4-yl-phenyl)-amine]", "values": [{"measurement": "IC50", "value": "< 1", "unit": "µM"}]}]}
